Assay results from paper PMC6366416, “Synthesis and in vitro anticancer activity of certain novel 1-(2-methyl-6-arylpyridin-3-yl)-3-phenylureas as apoptosis-inducing agents” (Journal of Enzyme Inhibition and Medicinal Chemistry, 2019).

How the values were obtained:
[1] = tested on: 60 cancer cell lines (NCI, USA); assay: NCI one-dose SRB assay, whole panel; type: cell-based, human; details: 10 μM; cell lines with GI% higher than 10%
Protocol: (§1) The antitumor assay was performed according to the protocol of the Drug Evaluation Branch, NCI, Bethesda[24–26]. A 48 h drug exposure protocol was adopted, and sulforhodamine B (SRB) assay[27] was utilized to assess the cell growth and viability, as reported earlier[17]^,[28].
(§2) The structures of all the newly synthesized pyridines 5a–l were submitted to the National Cancer Institute (NCI) Developmental Therapeutic Program (www.dtp.nci.nih.gov). […] Nine different types of cancer were tested in this assay: colon, ovarian, prostate, leukemia, melanoma, CNS, renal, breast and lung cancers. A 48 h drug exposure protocol was adopted, and sulforhodamine B (SRB) assay[27] was utilized to assess the cell growth and viability.

NCI-H522 = assay: NCI one-dose SRB growth inhibition; type: cell-based; details: Homo sapiens, NCI-H522, 48 h, Non-Small Cell Lung Cancer, read-out: GI% NCI-H522
Protocol: as §1, §2

SK-MEL-5 = assay: NCI one-dose SRB growth inhibition; type: cell-based; details: Homo sapiens, Melanoma, 48 h, read-out: GI% SK-MEL-5
Protocol: as §1, §2

EKVX = assay: NCI one-dose SRB growth inhibition; type: cell-based; details: Homo sapiens, Non-Small Cell Lung Cancer, 48 h, read-out: GI% EKVX
Protocol: as §1, §2

RPMI-8226 = assay: NCI one-dose SRB growth inhibition; type: cell-based; details: Homo sapiens, RPMI-8226, 48 h, Leukemia, read-out: GI% RPMI-8226
Protocol: as §1, §2

786-0 = assay: NCI one-dose SRB growth inhibition; type: cell-based; details: Homo sapiens, Renal Cancer, 48 h, read-out: GI% 786-0
Protocol: as §1, §2

SK-OV-3 = assay: NCI one-dose SRB growth inhibition; type: cell-based; details: Homo sapiens, Ovarian Cancer, 48 h, read-out: GI% SK-OV-3
Protocol: as §1, §2

OVCAR-3 = assay: NCI one-dose SRB growth inhibition; type: cell-based; details: Homo sapiens, OVCAR-3, 48 h, Ovarian Cancer, read-out: GI% OVCAR-3
Protocol: as §1, §2

HT29 = assay: NCI one-dose SRB growth inhibition; type: cell-based; details: Homo sapiens, HT-29, 48 h, Colon Cancer, read-out: GI% HT29
Protocol: as §1, §2

OVCAR-5 = assay: NCI one-dose SRB growth inhibition; type: cell-based; details: Homo sapiens, Ovarian Cancer, 48 h, read-out: GI% OVCAR-5
Protocol: as §1, §2

SR = assay: NCI one-dose SRB growth inhibition; type: cell-based; details: Homo sapiens, 48 h, Leukemia, read-out: GI% SR
Protocol: as §1, §2

UACC-62 = assay: NCI one-dose SRB growth inhibition; type: cell-based; details: Homo sapiens, UACC-62, 48 h, Melanoma, read-out: GI% UACC-62
Protocol: as §1, §2

UACC-257 = assay: NCI one-dose SRB growth inhibition; type: cell-based; details: Homo sapiens, UACC-257, read-out: GI% UACC-257, Melanoma, 48 h
Protocol: as §1, §2

COLO 205 = assay: NCI one-dose SRB growth inhibition; type: cell-based; details: Homo sapiens, Colon Cancer, 48 h, read-out: GI% COLO 205
Protocol: as §1, §2

MCF7 = assay: NCI one-dose SRB growth inhibition; type: cell-based; details: Homo sapiens, Breast Cancer, 48 h, read-out: GI% MCF7
Protocol: as §1, §2

DU-145 = assay: NCI one-dose SRB growth inhibition; type: cell-based; details: Homo sapiens, Prostate, 48 h, read-out: GI% DU-145
Protocol: as §1, §2

HCT-15 = assay: NCI one-dose SRB growth inhibition; type: cell-based; details: Homo sapiens, HCT-15, 48 h, Colon Cancer, read-out: GI% HCT-15
Protocol: as §1, §2

SK-MEL-2 = assay: NCI one-dose SRB growth inhibition; type: cell-based; details: Homo sapiens, Melanoma, 48 h, read-out: GI% SK-MEL-2
Protocol: as §1, §2

LOX IMVI = assay: NCI one-dose SRB growth inhibition; type: cell-based; details: Homo sapiens, Melanoma, 48 h, read-out: GI% LOX IMVI
Protocol: as §1, §2

HOP-92 = assay: NCI one-dose SRB growth inhibition; type: cell-based; details: Homo sapiens, Non-Small Cell Lung Cancer, 48 h, read-out: GI% HOP-92
Protocol: as §1, §2

NCI-H460 = assay: NCI one-dose SRB growth inhibition; type: cell-based; details: Homo sapiens, Non-Small Cell Lung Cancer, 48 h, read-out: GI% NCI-H460
Protocol: as §1, §2

HL-60(TB) = assay: NCI one-dose SRB growth inhibition; type: cell-based; details: Homo sapiens, Leukemia, 48 h, read-out: GI% HL-60(TB)
Protocol: as §1, §2

UO-31 = assay: NCI one-dose SRB growth inhibition; type: cell-based; details: Homo sapiens, Renal Cancer, 48 h, read-out: GI% UO-31
Protocol: as §1, §2

MOLT-4 = assay: NCI one-dose SRB growth inhibition; type: cell-based; details: Homo sapiens, Leukemia, 48 h, read-out: GI% MOLT-4
Protocol: as §1, §2

NCI-H23 = assay: NCI one-dose SRB growth inhibition; type: cell-based; details: Homo sapiens, Non-Small Cell Lung Cancer, 48 h, read-out: GI% NCI-H23
Protocol: as §1, §2

A498 = assay: NCI one-dose SRB growth inhibition; type: cell-based; details: Homo sapiens, Renal Cancer, 48 h, read-out: GI% A498
Protocol: as §1, §2

HS 578T = assay: NCI one-dose SRB growth inhibition; type: cell-based; details: Homo sapiens, Breast Cancer, 48 h, read-out: GI% HS 578T
Protocol: as §1, §2

SW-620 = assay: NCI one-dose SRB growth inhibition; type: cell-based; details: Homo sapiens, Colon Cancer, 48 h, read-out: GI% SW-620
Protocol: as §1, §2

NCI-H226 = assay: NCI one-dose SRB growth inhibition; type: cell-based; details: Homo sapiens, Non-Small Cell Lung Cancer, 48 h, read-out: GI% NCI-H226
Protocol: as §1, §2

NCI/ADR-RES = assay: NCI one-dose SRB growth inhibition; type: cell-based; details: Homo sapiens, Ovarian Cancer, 48 h, read-out: GI% NCI/ADR-RES
Protocol: as §1, §2

SF-295 = assay: NCI one-dose SRB growth inhibition; type: cell-based; details: Homo sapiens, CNS Cancer, 48 h, read-out: GI% SF-295
Protocol: as §1, §2

NCI-H322M = assay: NCI one-dose SRB growth inhibition; type: cell-based; details: Homo sapiens, Non-Small Cell Lung Cancer, 48 h, read-out: GI% NCI-H322M
Protocol: as §1, §2

SMILES | melting point [°C] | Sensitive cell lines no. [1] | inhibition at 10 µM (NCI-H522) [%] | inhibition at 10 µM (SK-MEL-5) [%] | inhibition at 10 µM (EKVX) [%] | inhibition at 10 µM (RPMI-8226) [%] | inhibition at 10 µM (786-0) [%] | inhibition at 10 µM (SK-OV-3) [%] | inhibition at 10 µM (OVCAR-3) [%] | inhibition at 10 µM (HT29) [%] | inhibition at 10 µM (OVCAR-5) [%] | inhibition at 10 µM (SR) [%] | inhibition at 10 µM (UACC-62) [%] | inhibition at 10 µM (UACC-257) [%] | inhibition at 10 µM (COLO 205) [%] | inhibition at 10 µM (MCF7) [%] | inhibition at 10 µM (DU-145) [%] | inhibition at 10 µM (HCT-15) [%] | inhibition at 10 µM (SK-MEL-2) [%] | inhibition at 10 µM (LOX IMVI) [%] | also measured
Cc1nc(-c2ccc(Cl)cc2)ccc1NC(=O)Nc1cccc(C(F)(F)F)c1 [Compound 5e, 1-(6-(4-Chlorophenyl)-2-methylpyridin-3-yl)-3-(3-(trifluoromethyl)phenyl)urea] | 241 to 242 | 17 | 48 | < 10 | < 10 | 15 | < 10 | < 10 | < 10 | 25 | < 10 | 41 | < 10 | < 10 | < 10 | 20 | < 10 | 18 | < 10 | < 10 | inhibition at 10 µM (HOP-92): < 10%; inhibition at 10 µM (NCI-H460): 34%; inhibition at 10 µM (HL-60(TB)): 21%; inhibition at 10 µM (UO-31): < 10%; inhibition at 10 µM (MOLT-4): 12%; inhibition at 10 µM (NCI-H23): < 10%; inhibition at 10 µM (A498): < 10%; inhibition at 10 µM (HS 578T): < 10%; inhibition at 10 µM (SW-620): 11%; inhibition at 10 µM (NCI-H226): < 10%; inhibition at 10 µM (NCI/ADR-RES): < 10%; inhibition at 10 µM (SF-295): < 10%; inhibition at 10 µM (NCI-H322M): < 10%
COc1ccc(NC(=O)Nc2ccc(-c3ccc(Cl)cc3)nc2C)cc1 [Compound 5f, 1-(6-(4-Chlorophenyl)-2-methylpyridin-3-yl)-3-(4-methoxyphenyl) urea] | 264 to 265 | 19 | 40 | 38 | < 10 | 14 | < 10 | < 10 | < 10 | 23 | < 10 | 28 | 27 | 26 | < 10 | 23 | < 10 | < 10 | < 10 | 21 | inhibition at 10 µM (HOP-92): < 10%; inhibition at 10 µM (NCI-H460): < 10%; inhibition at 10 µM (HL-60(TB)): 12%; inhibition at 10 µM (UO-31): < 10%; inhibition at 10 µM (MOLT-4): 14%; inhibition at 10 µM (NCI-H23): < 10%; inhibition at 10 µM (A498): < 10%; inhibition at 10 µM (HS 578T): < 10%; inhibition at 10 µM (SW-620): < 10%; inhibition at 10 µM (NCI-H226): 19%; inhibition at 10 µM (NCI/ADR-RES): < 10%; inhibition at 10 µM (SF-295): < 10%; inhibition at 10 µM (NCI-H322M): < 10%
Cc1nc(-c2ccc(Cl)cc2)ccc1NC(=O)Nc1ccc2c(c1)OCO2 [Compound 5g, 1-(Benzo[d][1,3]dioxol-5-yl)-3-(6-(4-chlorophenyl)-2-methylpyridin-3-yl)urea] | 271 to 273 | 12 | 38 | 17 | < 10 | < 10 | < 10 | < 10 | < 10 | 11 | < 10 | 22 | 27 | 25 | < 10 | < 10 | < 10 | < 10 | < 10 | 34 | inhibition at 10 µM (HOP-92): < 10%; inhibition at 10 µM (NCI-H460): < 10%; inhibition at 10 µM (HL-60(TB)): 24%; inhibition at 10 µM (UO-31): < 10%; inhibition at 10 µM (MOLT-4): 18%; inhibition at 10 µM (NCI-H23): < 10%; inhibition at 10 µM (A498): < 10%; inhibition at 10 µM (HS 578T): < 10%; inhibition at 10 µM (SW-620): < 10%; inhibition at 10 µM (NCI-H226): < 10%; inhibition at 10 µM (NCI/ADR-RES): < 10%; inhibition at 10 µM (SF-295): < 10%; inhibition at 10 µM (NCI-H322M): < 10%
